The subject of one assay is 23SK skin cells. Description: cell cycle distribution by flow cytometry. Type of assay: cell-based, human. The conditions noted are these: 23SK cells. From the text: FIGS. 5A-5D are cell histograms showing the results from flow cytometry analysis of chemoprotective polyamine-treated 23SK skin cells.
In FIG. 5, cell histograms showing the results from flow cytometry analysis of chemoprotective polyamine-treated 23SK skin cells are shown. […] The transient nature of the cell cycle block induced by chemoprotective polyamines is believed to be an important aspect of their efficacy, i.e., their ability to block cell cycle progression in stem cells during the course of chemo- or radiotherapy, and the resumption of normal stem cell division after a given cancer therapy course has been completed.

Assay [1] has as its system p21 protein in 23SK human skin cells. The assay can be described thus: p21 induction by western analysis. In kind it is cell-based. The conditions noted are these: 30 hr exposure. The protocol: FIGS. 3A and 3B illustrate the level of induced p21 protein seen in diploid human fibroblasts after a 30 hr exposure to each of the indicated chemoprotective polyamines. […] In these experiments, the 23SK human skin cells were exposed for 30 hr to an “IC80” dose of each of the indicated chemoprotective polyamines and then lysed. Cell extracts were then prepared in order to measure p21 levels by western analysis (FIG. 3A).
FIG. 3 illustrates that chemoprotective polyamines are able to induce expression of the negative cell cycle regulatory protein, p21, after exposing the human skin cells to the polyamine molecules. […] In these experiments, the 23SK human skin cells were exposed for 30 hr to an “IC80” dose of each of the indicated chemoprotective polyamines and then lysed. Cell extracts were then prepared in order to measure p21 levels by western analysis (FIG. 3A). Although the ability of modified polyamines to induce p21 is known in the literature (Kramer, D. et al., Cancer Res. 59:1278-1286, 1999), it is a novel aspect of this invention that those chemoprotective polyamines with longer aliphatic “arms” were better able to induce expression of p21 as shown in FIG. 4.

These results are taken from US7414154B2, “Polyamine compounds and compositions for use in conjunction with cancer therapy” (Wisconsin Alumni Research Foundation, priority 2002, dated 2008).

Turning to `CCNCCCCNCCCCNCCCCNCC=C(CS)CNCCCCNCCCCNCCCCNCC` [PrC-116], in the assay on 23SK skin cells, the “Cell Cycle Distribution At IC80 Dose (%) G1” value was 66%, the “Cell Cycle Distribution At IC80 Dose (%) G2/M” value is 23% and the “Cell Cycle Distribution At IC80 Dose (%) S” value turned out to be 11%.

`CCNCCCCNCCCCNCCCCNCCCCNCC=C(CS)CNCCCCNCCCCNCCCCNCCCCNCC` [PrC-117]: in the assay with 23SK skin cells, the “Cell Cycle Distribution At IC80 Dose (%) G1” value was 86%, the “Cell Cycle Distribution At IC80 Dose (%) G2/M” value was 3% and the “Cell Cycle Distribution At IC80 Dose (%) S” value is listed as 11%. For the same compound, the “p21 fold-induction at IC80 Dose” value in assay [1] is around 3.0 fold.

Consider `CCNCCCCNCCCCNCCCCNCCCCNCC=C(CNCCCCNCCCCNCCCCNCCCCNCC)CN(C)C` [PrC-121], for which, in the assay on 23SK skin cells, the “Cell Cycle Distribution At IC80 Dose (%) G1” value was 76%, the “Cell Cycle Distribution At IC80 Dose (%) G2/M” value worked out at 20% and the “Cell Cycle Distribution At IC80 Dose (%) S” value came out at 4%.
